Read-outs that look alike come from different tables or passages of the source.

The term IC50 denotes the concentration that gives 50% inhibition.

Assay [1] addresses HPK1 (SLP76 phosphorylation at Ser376 in Jurkat and EL-4 cells) (Homo sapiens, UniProt Q92918). It counts as cell-based. As for the experimental part: Cellular Assay—Phospho-SLP-76 (Ser376).
Inhibition of HPK1 enzymatic activity in cells was determined by detection of SLP76 phosphorylation at Ser376 residue in lysate from Jurkat (human) and EL-4 (mouse) cells. Jurkat and EL-4 cells express both HPK1 and SLP76 naturally. All cells were cultured in RPMI 1640 media containing 10% heat inactivated fetal bovine serum (FBS) and 1×Penicillin-Streptomycin. In either Jurkat or El-4 assay, cells were pre-incubated with test compounds prior to T cell stimulation by respective αCD3/αCD28 Dynabeads™. For detection, plates were read on the Envision and percent inhibition and IC50 were determined by Smart fit in Genedata Analyzer.
For Jurkat cells: 35 μL cell suspension were dispensed at a density of 30,000 cells/well in 384-well plates containing HBSS (Gibco, 14025076)+0.1% BSA). 10-point logarithmic serial dilution of test compounds in DMSO were prepared by a Hamilton automated liquid handling robot and 35 nL was transferred into each well by an Echo liquid handler. After 60 min. pre-incubation, the cells were stimulated by adding 5 μL human T activator αCD3/αCD28 Dynabeads™ (Gibco, 11132D) at 1.2×107 beads/mL for 15 minutes at 37° C. Detection of Ser376 phosphorylation status was accomplished by first adding 10 μL of 5×AlphaLISA lysis buffer (Perkin Elmer, ALSU-PSLP-A500) to each well of the cell plate using a Multidrop Combi (5840300), followed by 20 minutes shaking. 10 μL cell lysate from each treatment were then transferred to a white 384-well plate (Corning 3572) and incubated with AlphaLISA acceptor beads for one hour (AlphaLISA SureFire Ultra p-SLP76(Ser376), Perkin Elmer, ALSU-PSLP-A500), and donor beads for additional 2 hours at room temperature in the dark.
For EL-4.IL2 assay, 50 μL cell suspension at 2×10^6 cells/mL in HBSS were first dispensed into 384-well plates and then 50 nL serial dilutions of test compounds were spotted to each well by an Echo liquid handler. After 60 min. incubation at 37° C., cells were stimulated by adding 5 μL mouse T cell activator αCD3/αCD28 Dynabeads™ (ThermFisher Scientific, 11452D) for 30 minutes at 37° C. After a brief spin and subsequent supernatant discarded, 12.5 μL of Cisbio lysis buffer were added to each well and plates were shaken for 30 min at 450 RPM. For detection, 4 μL prepared HTRF antibody mixture (Cisbio, 63ADK000U) in detection buffer were mixed with 16 μl of cell lysate and plates were incubated at room temperature for 19 hours prior to EnVision reading.

For assay [2], the target named is full-length human HPK1 (MAP4K1) (Homo sapiens (Human), UniProt Q92918). Kind of assay: HPK1 Kinase Assay (Biochemical Assay), ADP-Glo. As to conditions: GST-HPK1 3.2 nM, 10 μM ATP, MBP substrate, read-out: HPK1 enzymatic IC50. The source says: HPK1 Kinase Assay (Biochemical Assay).
A recombinant fusion protein consisting of full-length human HPK1 (MAP4K1) with an N-terminal Glutatione S-transferase (GST) tag was produced in insect cells Sf21 using the baculovirus expression system. GST-HPK1 protein was purified from cell lysates by glutathione Sepharose affinity chromatography. The assay is run in three continuous steps: 1) the HPK1 enzymatic kinase reaction, 2) an ATP depletion, and 3) the ADP detection, the steps 2 and 3 are performed with ADP-Glo™ Kinase Assay kit from Promega (V9101). Test compounds were prepared by 10-point serial dilution in dimethyl sulfoxide (DMSO) and 100 nL of each dilution was spotted onto a 384-well Optiplate (Perkin Elmer and Cat #6007299) by Labcyte Echo. 5 μL kinase reaction buffer (0.02% Brij-35, 2 mM DTT, 50 mM HEPES pH 7.5, MgCl2 10 mM, BSA 0.01% and O-glycerophosphate 12.5 mM) containing HPK1 (3.2 nM) enzyme was transferred to each well and incubated for 15 minutes at room temperature at 60% humidity. The enzymatic reaction was started by adding 5 μl of Start-Mix (10 μM ATP and 3.235 μM MBP). After 120 minutes, the reaction was stopped by adding 5 μL of ADP-Glo reagent (Promega, V9101) and incubating for 40 min. in the dark at 23° C. To determine the level of ADP, 10 μl ADP-Glo Detection solution was added and incubated for 1 hour at 23° C. in the dark. The plate was transferred to a Perkin Elmer EnVision (2104 Multilabel Reader) for luminescence detection and percent inhibition activity and IC50 value were determined using Genedata Screener.
(In general: In ADP-Glo the light output rises with the ADP produced.)

Where [3] appears, read: αCD3/αCD28 Dynabeads stimulated cells, pSLP76 (Ser376) detection; read-out: HPK1 pSLP76 IC50.
The mark [4] stands for this setting: read-out: HPK1 pSLP76 IC50; αCD3/αCD28 Dynabeads stimulated cells, pSLP76 (Ser376) detection.

Chain of HPK1 (SLP76 phosphorylation at Ser376 in Jurkat and EL-4 cells) (Q92918 whole entry, looked up): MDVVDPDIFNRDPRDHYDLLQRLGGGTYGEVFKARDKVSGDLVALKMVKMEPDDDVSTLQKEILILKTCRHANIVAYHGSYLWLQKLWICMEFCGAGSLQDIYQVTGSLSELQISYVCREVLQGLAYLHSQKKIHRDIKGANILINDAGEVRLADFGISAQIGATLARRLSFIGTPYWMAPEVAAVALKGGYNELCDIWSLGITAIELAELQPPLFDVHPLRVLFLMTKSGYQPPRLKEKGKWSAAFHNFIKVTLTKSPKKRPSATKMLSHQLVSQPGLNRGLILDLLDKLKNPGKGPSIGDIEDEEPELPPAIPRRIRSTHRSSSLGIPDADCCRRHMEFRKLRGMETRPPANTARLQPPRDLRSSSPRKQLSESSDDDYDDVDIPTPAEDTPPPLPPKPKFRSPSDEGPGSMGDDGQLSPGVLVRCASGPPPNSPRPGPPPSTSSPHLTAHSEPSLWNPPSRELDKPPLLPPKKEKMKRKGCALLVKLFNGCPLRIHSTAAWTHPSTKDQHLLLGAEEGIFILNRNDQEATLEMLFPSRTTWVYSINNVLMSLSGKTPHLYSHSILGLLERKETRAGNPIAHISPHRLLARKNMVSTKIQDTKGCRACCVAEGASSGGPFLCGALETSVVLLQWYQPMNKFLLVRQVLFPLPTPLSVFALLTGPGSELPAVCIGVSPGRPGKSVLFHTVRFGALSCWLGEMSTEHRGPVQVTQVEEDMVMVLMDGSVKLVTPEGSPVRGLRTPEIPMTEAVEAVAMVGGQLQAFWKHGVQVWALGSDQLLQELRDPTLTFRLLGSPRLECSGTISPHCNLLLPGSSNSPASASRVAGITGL
Chain of full-length human HPK1 (MAP4K1) (Q92918 whole entry, the tested form may be a part): as the sequence (Q92918 whole entry, looked up) above

Regarding `Cc1c(N2CCc3cnc(Nc4ccc(CC(=O)N5CCC5)cc4)nc3C2)cnc2c1NCCO2` [Example 163, 1-(azetidin-1-yl)-2-(4-((7-(8-methyl-2,3-dihydro-1H-pyrido[2,3-b][1,4]oxazin-7-yl)-5,6,7,8-tetrahydropyrido[3,4-d]pyrimidin-2-yl)amino)phenyl)ethan-1-one], the IC50 in assay [1] (setting [3]) is < 500 nM; in assay [2], < 100 nM.

Turning to `Cc1c(N2CCc3cnc(Nc4ccc(CS(=O)(=O)N(C)C)cc4)cc3C2)cnc2c1NCCO2` [Example 150, N,N-dimethyl-1-{4-[(6-{8-methyl-1H,2H,3H-pyrido[2,3-b][1,4]oxazin-7-yl}-5,6,7,8-tetrahydro-2,6-naphthyridin-3-yl)amino]phenyl}methanesulfonamide], the IC50 in assay [1] (setting [3]) is < 500 nM; in assay [2], < 100 nM.

Turning to `Cc1c(N2CCc3cnc(Nc4ccc5c(c4)CNC5(C)C)nc3C2)cnc2c1NCCO2` [Example 13, 1,1-dimethyl-N-(7-{8-methyl-1H,2H,3H-pyrido[2,3-b][1,4]oxazin-7-yl}-5H,6H,7H,8H-pyrido[3,4-d]pyrimidin-2-yl)-2,3-dihydro-1H-isoindol-5-amine], the figures for the IC50 in assay [1] (setting [3]) and in assay [2] were < 500 nM and < 100 nM, respectively.

With `Cc1c(N2CCc3cnc(Nc4ccc5c(c4)COC5)nc3C2)cnc2c1NCCO2` [Example 92, N-(1,3-dihydroisobenzofuran-5-yl)-7-(8-methyl-2,3-dihydro-1H-pyrido[2,3-b][1,4]oxazin-7-yl)-5,6,7,8-tetrahydropyrido[3,4-d]pyrimidin-2-amine], the IC50 is 500 to 1000 nM in assay [1] (setting [3]) and < 100 nM in assay [2].

In the case of `COCCOCC(=O)Nc1ccc(Nc2ncc3c(n2)CN(c2cnc4c(c2C)NCCO4)CC3)cc1C` [Example 162, 2-(2-methoxyethoxy)-N-{2-methyl-4-[(7-{8-methyl-1H,2H,3H-pyrido[2,3-b][1,4]oxazin-7-yl}-5H,6H,7H,8H-pyrido[3,4-d]pyrimidin-2-yl)amino]phenyl}acetamide], the IC50 is < 500 nM in assay [1] (setting [3]) and < 100 nM in assay [2].

On to `Cc1c(N2Cc3nc(Nc4ccc(CS(C)(=O)=O)cc4)ncc3C(F)(F)C2)cnc2c1NCCO2` [Example 152, 5,5-difluoro-N-[4-(methanesulfonylmethyl)phenyl]-7-{8-methyl-1H,2H,3H-pyrido[2,3-b][1,4]oxazin-7-yl}-5H,6H,7H,8H-pyrido[3,4-d]pyrimidin-2-amine], for which the figures for the IC50 in assay [1] (setting [3]) and in assay [2] were < 500 nM and < 100 nM, respectively.

Turning to `Cc1c(N2CCc3cnc(Nc4ccc(Cn5nccn5)cc4)nc3C2)cnc2c1NCCO2` [Example 185, 7-{8-methyl-1H,2H,3H-pyrido[2,3-b][1,4]oxazin-7-yl}-N-{4-[(2H-1,2,3-triazol-2-yl)methyl]phenyl}-5H,6H,7H,8H-pyrido[3,4-d]pyrimidin-2-amine], the IC50 in assay [1] (setting [3]) is < 500 nM; in assay [2], < 100 nM.

Regarding `Cc1c(N2CCc3cnc(Nc4ccc(OC5CCOCC5)cc4)nc3C2)cnc2c1NCCO2` [Example 94, 7-(8-methyl-2,3-dihydro-1H-pyrido[2,3-b][1,4]oxazin-7-yl)-N-(4-((tetrahydro-2H-pyran-4-yl)oxy)phenyl)-5,6,7,8-tetrahydropyrido[3,4-d]pyrimidin-2-amine], the results for the IC50 in assay [1] (setting [4]) and in assay [2] were 500 to 1000 nM and < 100 nM, respectively.

Take `Cc1cc(Nc2cc3c(cn2)CCN(c2cnc4c(c2C)NCCO4)C3)ccc1C(=O)NCCN1CCOCC1` [Example 27, 2-methyl-4-[(6-{8-methyl-1H,2H,3H-pyrido[2,3-b][1,4]oxazin-7-yl}-5,6,7,8-tetrahydro-2,6-naphthyridin-3-yl)amino]-N-[2-(morpholin-4-yl)ethyl]benzamide]: the IC50 in assay [1] (setting [3]) is 500 to 1000 nM; in assay [2] it was < 100 nM.

Take `Cc1c(N)cncc1N1CCc2cnc(Nc3cnc4c(c3)CN(C)CC4)nc2C1` [Example 116, 7-(5-amino-4-methylpyridin-3-yl)-N-(6-methyl-5,6,7,8-tetrahydro-1,6-naphthyridin-3-yl)-5,6,7,8-tetrahydropyrido[3,4-d]pyrimidin-2-amine]: the IC50 was > 1000 nM in assay [1] (setting [3]) and < 100 nM in assay [2].

For `COC(=O)Nc1ccc(Nc2ncc3c(n2)CN(c2cnc4c(c2C)NCCO4)CC3)cc1` [Example 71, methyl N-{4-[(7-{8-methyl-1H,2H,3H-pyrido[2,3-b][1,4]oxazin-7-yl}-5H,6H,7H,8H-pyrido[3,4-d]pyrimidin-2-yl)amino]phenyl}carbamate], the IC50 is < 500 nM in assay [1] (setting [3]) and < 100 nM in assay [2].

Turning to `Cc1cc(Nc2cc3c(cn2)CCN(c2cnc4c(c2C)NCCO4)C3)ccc1NC(=O)CN1CCC1` [Example 9, 2-(azetidin-1-yl)-N-{2-methyl-4-[(6-{8-methyl-1H,2H,3H-pyrido[2,3-b][1,4]oxazin-7-yl}-5,6,7,8-tetrahydro-2,6-naphthyridin-3-yl)amino]phenyl}acetamide], the concentration for half-maximal inhibition (IC50) in assay [1] (setting [3]) is < 500 nM; in assay [2], < 100 nM.

On to `Cc1c(N2CCc3cnc(Nc4ccc5c(c4)C(C)(C)OC5)nc3C2)cnc2c1NCCO2` [Example 93, N-(3,3-dimethyl-1,3-dihydroisobenzofuran-5-yl)-7-(8-methyl-2,3-dihydro-1H-pyrido[2,3-b][1,4]oxazin-7-yl)-5,6,7,8-tetrahydropyrido[3,4-d]pyrimidin-2-amine], for which the IC50 in assay [1] (setting [4]) is < 500 nM; in assay [2], < 100 nM.

Consider `Cc1c(N2CCc3cnc(Nc4ccnc(N5CCOCC5)c4)cc3C2)cnc2c1NCCO2` [Example 54, 6-(8-methyl-2,3-dihydro-1H-pyrido[2,3-b][1,4]oxazin-7-yl)-N-(2-morpholinopyridin-4-yl)-5,6,7,8-tetrahydro-2,6-naphthyridin-3-amine], for which the IC50 in assay [2] is < 100 nM.

On to `Cc1c(N2CCc3cnc(NC4CCN(Cc5cnn(C)c5)CC4)nc3C2)cnc2c1NCCO2` [Example 70, N-(7-{8-methyl-1H,2H,3H-pyrido[2,3-b][1,4]oxazin-7-yl}-5H,6H,7H,8H-pyrido[3,4-d]pyrimidin-2-yl)-1-[(1-methyl-1H-pyrazol-4-yl)methyl]piperidin-4-amine], for which the half-inhibitory concentration (IC50) in assay [2] is > 1000 nM.

On to `COc1cccc(F)c1N1CCc2cnc(Nc3cnc4c(c3)CN(C)CC4)nc2C1` [Example 120, 7-(2-fluoro-6-methoxyphenyl)-N-(6-methyl-5,6,7,8-tetrahydro-1,6-naphthyridin-3-yl)-5,6,7,8-tetrahydropyrido[3,4-d]pyrimidin-2-amine], for which the IC50 in assay [1] (setting [3]) was > 1000 nM.

As for `Cc1c(N2CCc3cnc(Nc4cnc5c(c4)CN(C)CC5)nc3C2)cnc2c1N(C)CCO2` [Example 101, 7-(1,8-dimethyl-2,3-dihydro-1H-pyrido[2,3-b][1,4]oxazin-7-yl)-N-(6-methyl-5,6,7,8-tetrahydro-1,6-naphthyridin-3-yl)-5,6,7,8-tetrahydropyrido[3,4-d]pyrimidin-2-amine], the IC50 in assay [2] is < 100 nM.
